Measured values published in EP1509519B1, “CRYSTALLINE FLUOROQUINOLONE ARGININE SALT FORM” (Wockhardt Limited, priority 2002, dated 2003).
Several values for one entry are separate records, joined by “and”; a condition that tells them apart may be missing. Equal values may be shown once.

Legend:
[1] = bulk density determination; assay type: physicochemical
Description: Untapped density = 25 g/untapped volume. […] Tapped density = 25 g/Tapped volume.

bioavailability = experiment: bioavailability; set-up: species or system mammals; details: in vivo
[2] = mean mass diameter determination (laser diffraction); details: for Mean mass diameter: individual samples made by the procedure of example 1, laser diffraction
[3] = water

CC1CCc2c(N3CCC(O)CC3)c(F)cc3c(=O)c(C(=O)O)cn1c23.N=C(N)NCCCC(N)C(=O)O (racemic) [R, S-9-fluoro-6,7-dihydro-8-(4-hydroxypiperidin-1-yl)-5-methyl-1-oxo-1H,5H-benzo [i,j]-quinolizine-2-carboxylic acid DL-arginine salt]
antimicrobial activity (antimicrobial activity): have antimicrobial activity

S-(-)-9-fluoro-6,7-dihydro-8-(4-hydroxypiperidin-1-yl)-5-methyl-1-oxo-1H,5H-benzo [ij]-quinolizine-2-carboxylic acid DL-arginine salt
antimicrobial activity (antimicrobial activity): have antimicrobial activity

CC1CCc2c(N3CCC(O)CC3)c(F)cc3c(=O)c(C(=O)O)cn1c23.N=C(N)NCCC[C@@H](N)C(=O)O (racemic) [RS-(±)-9-fluoro-6,7-dihydro-8-(4-hydroxypiuenidin-1-yl)-5-methyl-1-oxo-1H,5H-benzo[i,j]quinolizine-2-carboxylic acid D-argirrine salt]
antimicrobial activity (antimicrobial activity): have antimicrobial activity

C[C@@H]1CCc2c(N3CCC(O)CC3)c(F)cc3c(=O)c(C(=O)O)cn1c23.N=C(N)NCCC[C@H](N)C(=O)O [R-(+)-9-fluoro-6,7-dihydro-8-(4-hydroxypipe-1-yl)-5-1-oxo-1H,5H-benzo[i,j]quinolizine-2-carboxylic acid L-arginine salt]
antimicrobial activity (antimicrobial activity): have antimicrobial activity

C[C@H]1CCc2c(N3CCC(O)CC3)c(F)cc3c(=O)c(C(=O)O)cn1c23
Bulk density (tapped) ([1]; 25 gm/tapped volume, tapped 150 times): 0.64 g/mL | Bulk density (untapped) ([1]; 25 gm/untapped volume): 0.57 g/mL | bioavailability (bioavailability): favorable bioavailability | Mean mass diameter ([2]; hydrate): less than or equal to 40 µm | Mean mass diameter ([2]; listed as Example 1, hydrate): 32.92 µm and 24.22 µm and 34.51 µm and 39.07 µm | Mean mass diameter, mean value ([2]; mean of four samples): 32.68 µm

C[C@@H]1CCc2c(N3CCC(O)CC3)c(F)cc3c(=O)c(C(=O)O)cn1c23.N=C(N)NCCC[C@@H](N)C(=O)O [R-(+)-9-fluoro-6,7-dihydro-8-(4-hydroxypiperidin-1-yl)-5-methyl-1-oxo-1H,5H-benzo[i,j]quinolizine-2-carboxylic acid D-arginine salt]
antimicrobial activity (antimicrobial activity): have antimicrobial activity

CC1CCc2c(N3CCC(O)CC3)c(F)cc3c(=O)c(C(=O)O)cn1c23.N=C(N)NCCC[C@H](N)C(=O)O (racemic) [RS-(±)-9-fluoro-6,7-dihydro-8-(4-hydroxypiperidin-1-yl)-5-methyl-1-oxo-1H,5H-benzo[i,j]quinolizine-2-carboxylic acid L-arginine salt]
antimicrobial activity (antimicrobial activity): have antimicrobial activity

R-(+)-9-fluoro-6,7-dihydro-8-(4-hydroxypiperidin-1-yl)-5-methyl-1-oxo-1H,5H-benzo [ij]-quinolizine-2-carboxylic acid DL-arginine salt
antimicrobial activity (antimicrobial activity): have antimicrobial activity

C[C@H]1CCc2c(N3CCC(O)CC3)c(F)cc3c(=O)c(C(=O)O)cn1c23 [reference compound]
antimicrobial activity compared with the R-(+)- and RS-(±)-acids (antimicrobial activity): more potent antimicrobial activity | aqueous solubility [3]: 0.8 to 2.0 mg/mL
